From paper PMC9352670 (2022)

Key:
Assay in all cases: microscale thermophoresis
[1] = tested on: Dm-HS-1 TGG ∆ s.c. (DNA, aptamer, no side-chain at 25 (codon 3 TGG); others as HFNAP: fluorophenyl at 19; allylamine at 22, 37; alcohol at 28, 34, 49; phenol at 31, 46; cyclopentyl at 40; cyclopropyl at 43, 58; imidazole at 52, 55, 61) GAAAGCAGGACTGGAGATCGATTCTGGTGCTGTTGATCTCCGCCATTGTGCTCCTACCCTTCACAGACCGAACTAGAGCTT; conditions: 5 mM KCl, 1 mM MgCl2, 1 mM CaCl2 added to HBS-P+; HBS-P+ buffer, 25 °C
[2] = tested on: Dm-HS-1 (DNA, aptamer, HFNAP nucleobase side-chains: fluorophenyl at 19; allylamine at 22,25,37; alcohol at 28,34,49; phenol at 31,46; cyclopentyl at 40; cyclopropyl at 43,58; imidazole at 52,55,61) GAAAGCAGGACTGGAGATCGATTCTGGTGCTGTTGATCTCCGCCATTGTGCTCCTACCCTTCACAGACCGAACTAGAGCTT; conditions: 5 mM KCl, 1 mM MgCl2, 1 mM CaCl2 added; HBS-P+ buffer, 25 °C
[3] = tested on: Dm-HS-7 (DNA, aptamer, HFNAP: side-chain on 5' nucleobase of each coding trinucleotide, positions 19,22,25,...,61 (codon key Figure 1B)) GAAAGCAGGACTGGAGATCGATTGCAGTTACGTTGCTAGTCCCCTTGATCACCTCCGTCACCTCAGACCGAACTAGAGCTT; conditions: 5 mM KCl, 1 mM MgCl2, 1 mM CaCl2 added; HBS-P+ buffer, 25 °C
[4] = tested on: Dm-HS-1 TAC ∆ s.c. (DNA, aptamer, no side-chain at 55 (codon 13 TAC); others as HFNAP: fluorophenyl at 19; allylamine at 22, 25, 37; alcohol at 28, 34, 49; phenol at 31, 46; cyclopentyl at 40; cyclopropyl at 43, 58; imidazole at 52, 61) GAAAGCAGGACTGGAGATCGATTCTGGTGCTGTTGATCTCCGCCATTGTGCTCCTACCCTTCACAGACCGAACTAGAGCTT; conditions: 5 mM KCl, 1 mM MgCl2, 1 mM CaCl2 added to HBS-P+; HBS-P+ buffer, 25 °C
[5] = tested on: Dm-CCS-3 (DNA, aptamer, HFNAP: side-chain on 5' nucleobase of each coding trinucleotide, positions 19,22,25,...,61 (codon key Figure 1B)) GAAAGCAGGACTGGAGATTTACATCCCCTCCAGTCGTGCCCCCTACCTTGCTGCTCGTCATGGCAGACCGAACTAGAGCTT; conditions: 5 mM KCl, 1 mM MgCl2, 1 mM CaCl2 added; HBS-P+ buffer, 25 °C

COc1cccc2c1C(=O)c1c(O)c3c(c(O)c1C2=O)C[C@@](O)(C(C)=O)C[C@@H]3O[C@H]1C[C@H](N)[C@H](O)[C@H](C)O1
Kd [1]: 16.0 ± 2.2 nM | Kd [2]: 12.85 ± 1.6 nM | Kd [3]: 18.09 ± 5.2 nM | Kd [4]: 21.7 ± 2.1 nM | Kd [5]: 26.4 ± 6.9 nM
